In publication PMC8100298, “Histone deacetylase inhibitor resminostat in combination with sorafenib counteracts platelet-mediated pro-tumoral effects in hepatocellular carcinoma” (Scientific Reports, 2021):
Read-outs that look alike come from different tables or passages of the source.

Legend:
PLC/PRF/5 HCC cells = assay: Intracellular flow cytometry (AcLys, H3K27Ac); assay type: cell-based; conditions: 1 µM or 3 µM, 24 hours (Fig. S1B)
Protocol: Supplemental Figures and Figure legends
Figure S1. Inhibition of cancer cell growth by the broad-spectrum HDACI resminostat
A. Inhibition of HDAC1 to 11 by resminostat determined by in vitro HDAC activity assays.
IC50 data from three independent experiments are shown as mean ± SD.
B. Intracellular flow cytometry using antibodies targeting acetyl lysine (AcLys) and the H3K27
acetylation mark (H3K27Ac). IgG isotype controls were used for each antibody. PLC/PRF/5
HCC cells were treated with vehicle control ( 0.1 % DMSO), 1 µM or 3 µM resminostat for 24
hours. For AcLys, the geometric mean fluore scence intensities (gMFI) are shown. For
H3K27Ac, the ratios of the gMFIs for H3K27Ac relative to Histone H3 are shown. D ata of
three technical replicates are presented as mean ± SD.
(1 picture or pasted object on this page, not shown here)
(100×, 78440; Thermo Scientific, Massachusetts, US). Following incubation for 1 h at 4°C,
The protein concentration of the
Fisher Scientific, Massachusetts, US ). Equal amounts of protein lysates and a pre-stained
US) and transferred to PVDF membranes. The membranes were probed using the relevant […]
secondary fluorescence labelled antibodies for 45 min in the dark at RT, washed twice in […]
cells were measured using the Miltenyi MACSQuant Analyser 10 (Miltenyi) and analysed with […]
counted in a Neubauer chamber before the required number of platelets was activated by […]

[1] = test system: Class I HDAC1, 2, 3, and 8; class II b HDAC6 and 10; and class IV HDAC11; assay: In vitro HDAC activity assay; assay type: biochemical, human; conditions: in words, from IC50 calculation (Fig. S1A)
Protocol: In vitro HDAC inhibition assay
The half maximal HDAC-inhibitory concentrations (IC50) of resminostat w ere determined by
in vitro HDAC activity assays (Reaction Biology Corporation RBC, Pennsylvania, USA). For
the assay, resminostat was dissolved in DMSO and a dilution series with 10 concentrations
was used. The inhibitory activity of resminostat was tested on purified recombinant human
HDAC1-11. HDAC1-11 were produced using a baculovirus express ion system (human
HDAC1: cat# 50051, BPS, California, US; human HDAC2: cat# KDA-21-277, RBC,
Pennsylvania, USA; human HDAC3: cat# KDA -22-278, RBC, Pennsylvania, USA; human
HDAC4: cat# 50004 BPS, California, US; human HDAC5: cat# KDA-21-280, RBC, […]
activities of HDAC1 to 11 were assessed using acetylated AMC (7-amino-4-methycoumarin)-
labelled fluorogenic peptide substrates: fluorogenic peptide from p53 residues 379-382 (RHKK(Ac)AMC) for HDAC1, 2, 3, 6, 10, 11; fluorogenic HDAC Class IIa Substrate (Trifluoro acetyl Lysine, Ac-LGK(TFA)-AMC) for HDAC 4, 5, 7, 9; and fluorogenic peptide from p53 residues 379-382 (RHK(Ac)K(Ac)AMC) for HDAC8. […] In a second step, the deacetylated products were digested by the addition of developer for 1 h at 30°C to produce the fluorescent signal proportional to the amount of deacetylated substrates and the fluorescence was measured using an Envision plate reader at 355 nm (excitation) and 460 nm (emission). […]

C33A = assay: Efficacy screening assay; assay type: cell-based; conditions: Homo sapiens, C-33-A, cervix, 72 h
Protocol: The experiment was performed by Oncolead GmbH & Co. KG (Karlsfeld , Germany), based on a standardized screening procedure . Cell lines were purchased directly from the ATCC, NCI and DSMZ cell line c ollections. Cells used for the study had undergone less than 20 passages. To ensure the absence of potential contamination and wrong assignment, all cell lines were tested using a whole genome assay (Agilent, USA). All cell lines were grown as recommended by the suppliers and with addition of 100 U/mL penicillin G and 100 µg/mL; streptomycin. Cell growth and treatments were performed in Nunclon D 96 -well plates (NUNC, Germany). The optimal seeding density for each cell line was determined to ensure exponential growth for the duration of the experiment. All cells growing without anti-cancer agents were sub-conﬂuent by the end of the treatment, as determined by visual inspection.
After an initial 24 h pre-growth period, the compounds were added. The vehicle concentration […]
was 0.1% DMSO. After incubation at 37°C for 72 h, the culture medium was aspirated, and the cells were precipitated by the addition of 10% trichloroacetic acid (Sigma-Aldrich, Missouri, US). After overnight incubation at 4°C, the plates were washed three times with deionized water. The precipitates were then stained with SRB (0.4% wt/v sulforhodamine B solution in 1% acetic acid, Sigma-Aldrich, Missouri, US). Afterwards, the plates were washed six times with 1% acetic acid to remove unbound stain. After drying the plates at room temperature, the bound SRB was solubilized with 10 mM Tris base and the optical density was measured at 520 nm using a Victor2 plate reader (Perkin Elmer, Germany). Blank OD values were subtracted from mean OD values for each concentration. The nonlinear curve ﬁtting and EC50 calculations were per formed using XLﬁt and algorithm “205” (ID Business […]
one-way ANOVA and multiple comparison (Dunnett) was performed for compound treatments compared to vehicle control. The adjusted p-values with 95% confidence interval were reported as significant. For comparison of EC50 values in Figure 1F, one-way ANOVA with multiple comparison testing (Tukey) was performed. Multiplicity adjusted p -values for the EC50 with sorafenib versus resminostat for each cell line and comparison between cell lines for sorafenib are presented (95% confidence interval for significance testing). For comparison of EC50 data in Figure 2B, one-way ANOVA with multiple comparison testing (Tukey) was performed. Multiplicity adjusted p-values with 95% confidence interval was applied. For the invasion assays in Figure 4, one-way ANOVA with multiple comparison testing (Tukey) was performed. Multiplicity adjusted p-values with 95% confidence interval was applied. The adjusted p-values comparing vehicle control without vs. with platelets and compound

In the case of CN(C)Cc1ccc(S(=O)(=O)n2ccc(/C=C/C(=O)NO)c2)cc1 [resminostat, Resminostat], the “acetylation of histone mark H3K27” value (PLC/PRF/5 HCC cells) is reported as “hyperacetylation”, the “global acetylation level (AcLys)” value (PLC/PRF/5 HCC cells) is reported as “increase of the global acetylation level in HCC cells in a dose-dependent manner” and the “inhibition of HDAC activity” value [1] is reported as “inhibits the activity”. For the same compound, the EC50 (C33A; log of EC50, negative, read-out: log(EC50) (converted)) was 1550 nM and the EC50 (C33A; read-out: EC50) was 1550 nM.
